Test results as given in patent US7829585B2, “Antifungal agent containing pyridine derivative” (Eisai R&D Management Co., Ltd., priority 2005, dated 2010).
≈ marks a conversion by molar mass, not a printed value.

Columns and labels:
[1] = tested on: C. albicans E81022 strain; assay: Anti-Candida activity, MIC measurement (broth dilution, visual inspection); assay type: cell-based; conditions: Candida albicans, E81022STRAIN, C. albicans E81022, RPMI1640, 48 hours at 35° C., read-out: Anti-Candida activity (minimum growth inhibitory concentration, MIC)
Method: (§1) For the C. albicans E81022 strain, a fungal suspension from a standing culture 48 hours at 30° C. in a Sabouraud dextrose liquid culture medium (SDB) was diluted 10000-fold with 1.3-times concentrated RPMI1640 medium to prepare a fungal suspension containing 1 to 2×10^4 cells/ml. For the A. fumigatus Tsukuba strain, −80° C. stored strain was diluted 1000-fold with 1.3-times concentrated RPMI1640 medium to prepare a fungal suspension containing 2 to 3×10^3 cells/ml.
(§2) Using a U-shaped bottomed 96-well plates, 8 samples/plate (A to H) of sample dilution solutions were prepared. On the first row was dispensed 240 μl of sterile distilled water, and on the 2nd to 12th row were dispersed 125 μL of 4% dimethylsulfoxide solution. Weighed sample was dissolved in dimethylsulfoxide to prepare a 5 mg/ml solution followed by adding 10 μL of the solutions to the first row of the prepared plates and preparing 12-step serial 2-fold dilutions (125 μL of solution+125 μL of 4% dimethylsulfoxide solution) on the plates.
(§3) The fungal suspension prepared in (1) was used in the amount of 75 μL/well to inoculate the flat-bottomed 96-well plates containing 25 μL/well of the test compound prepared in (2), and a standing culture was carried out aerobically for 48 hours at 35° C.

[2] = tested on: A. fumigatus Tsukuba strain; assay: Anti-Aspergillus activity, MIC measurement (broth dilution, visual inspection); assay type: cell-based; conditions: RPMI1640, 48 hours at 35° C., read-out: Anti-Aspergillus activity (minimum growth inhibitory concentration, MIC)
Method: as §1, §2, §3

[3] = tested on: C. albicans E81022 strain; assay: Experimental systemic Candida infection model in mice; assay type: in vivo; conditions: female ICR mice, C. albicans E81022 i.v. 4×10^6 cells/mouse; 10 mg/kg peroral, three times every 4 hours; observed until 14 days after infection
Method: A standing culture of C. albicans E81022 strain was static cultured for 48 hours at 30° C. in Sabouraud's dextrose agar (SDA), and the recovered fungal cells were suspended in sterilized physiological saline. By counting the fungal number on cytometry plate, the suspension was diluted to 2×10^7 cells/mL with sterilized saline to serve fungal inoculant.
The fungal inoculum was used in the amounts of 0.2 mL to inoculate 4.5 to 5.5 week-old femal ICR mice in the tail vein (4×10^6 cells/mouse).
From 0.5 to 1 hour after fungal inoculation, 0.2 mL of agent solution (dissolved or suspended in sterilized saline containing 6.5% dimethylsulfoxide and 3.5% Tween 80) was administered into the stomach using a peroral probe, three times every 4 hours. The agent concentration was set at 10 mg/kg and the number of animals in one group was 5 animals.
The protective effect was determined by observing life/death until 14 days after infection and calculating the mean survival days.

Row | Structure (SMILES) | MIC [1] [µg/mL] | MIC [2] [µg/mL] | Mean Survival Days [3] [days]
1 | Nc1ccc(C(=O)NCc2cc3ccc(OCc4ccccc4)cc3o2)c(N)n1 [Example 1, 2,6-Diamino-N-(6-benzyloxy-benzofuran-2-ylmethyl)-nicotinamide] | 0.39 (≈ 1 µM) | 1.56 (≈ 4.02 µM) | 9.6
2 | CCOc1ccc2cc(CNC(=O)c3ccc(N)nc3N)oc2c1 [Example 2, 2,6-Diamino-N-(6-ethoxy-benzofuran-2-ylmethyl)-nicotinamide] | 1.56 (≈ 4.78 µM) | 3.13 (≈ 9.59 µM) | 8.6
3 | Nc1ccc(C(=O)NCc2cc3ccc(OCC4CC4)cc3o2)c(N)n1 [Example 3, 2,6-Diamino-N-(6-cyclopropylmethoxy-benzofuran-2-ylmethyl)-nicotinamide] | 1.56 (≈ 4.43 µM) | 0.78 (≈ 2.21 µM) | 8.6
4 | COCc1ccc(C(=O)NCc2cc3ccc(OCc4ccccc4)cc3o2)c(N)n1 [Example 4, 2-Amino-N-(6-benzyloxy-benzofuran-2-ylmethyl)-6-methoxymethyl-nicotinamide] | 0.78 (≈ 1.87 µM) | 3.13 (≈ 7.5 µM) | 10.2
5 | C=CCOc1ccc2cc(CNC(=O)c3ccc(COC)nc3N)oc2c1 [Example 5, N-(6-Allyloxy-benzofuran-2-ylmethyl)-2-amino-6-methoxymethyl-nicotinamide] | 0.78 (≈ 2.12 µM) | 0.78 (≈ 2.12 µM) | 12.8
6 | COCc1ccc(C(=O)NCc2cc3ccc(OCC4CC4)cc3o2)c(N)n1 [Example 6, 2-Amino-N-(6-cyclopropylmethoxy-benzofuran-2-ylmethyl)-6-methoxymethyl-nicotinamide] | 0.78 (≈ 2.04 µM) | 1.56 (≈ 4.09 µM) | 11.4
7 | COCc1ccc(C(=O)NCc2cc3cc(OCc4ccccc4)ccc3o2)c(N)n1 [Example 7, 2-Amino-N-(5-benzyloxy-benzofuran-2-ylmethyl)-6-methoxymethyl-nicotinamide] | 0.39 (≈ 0.934 µM) | 1.56 (≈ 3.74 µM) | 8.8
8 | C=CCOc1ccc2cc(CNC(=O)c3ccc(N)nc3N)oc2c1 [Example 9, N-(6-Allyloxy-benzofuran-2-ylmethyl)-2,6-diamino-nicotinamide] | – | – | 9.6
9 | Nc1ncccc1C(=O)NCc1cc2ccc(OCC3CC3)cc2o1 [Example 72, 2-Amino-N-(6-cyclopropylmethoxy-benzofuran-2-ylmethyl)-nicotinamide] | 0.78 (≈ 2.31 µM) | 1.56 (≈ 4.62 µM) | –
10 | COCc1ccc(C(=O)NCc2cc3ccc(OCc4ccccc4)cc3s2)c(N)n1 [Example 77, 2-Amino-N-(6-benzyloxy-benzo[b]thiophen-2-ylmethyl)-6-methoxymethyl-nicotinamide] | 0.39 (≈ 0.9 µM) | 3.13 (≈ 7.22 µM) | –
11 | Nc1ccc(C(=O)NCc2cc3ccc(OCc4ccccc4)cc3s2)c(N)n1 [Example 78, 2,6-Diamino-N-(6-benzyloxy-benzo[b]thiohen-2-ylmethyl)-nicotinamide] | 0.39 (≈ 0.964 µM) | 1.56 (≈ 3.86 µM) | –
